We go through 11 compounds from PMC8126888 (RSC Medicinal Chemistry, 2020).

In brackets after ≈: the same amount, converted by molar mass. Like-named read-outs stand apart in the source and are kept apart here.

For one series, the system named is T. b. brucei (Squib-427). The series can be described thus: microbe, parasite or virus in culture. To be noted: Trypanosoma brucei, RHODESIENSE
For series [1] the following is noted: for improvement in the in vitro mouse clearance: versus the preceding analogue.
The subject of series [2] is primary peritoneal mouse macrophages (PMM). To be noted: for PMM pIC50: cytotoxicity to PMM, geometric mean of a minimum of two experiments ± standard error.
For series [3] the following is noted: pH 7.4.
For series [4] the following is noted: human liver microsomes.
For series [5], the system named is Trypanosoma cruzi, Tulahuen CL2, beta-galactosidase strain. The settings on record: read-out: T. cruzi Tulahuen C4 (LacZ) IC50.
Series [6] has as its system Leishmania infantum MHOM/MA(BE)/67/ITMAP263 intracellular amastigotes. The settings on record: for L. inf. pIC50: intracellular amastigotes in PMM, geometric mean of a minimum of two experiments ± standard error.
For series [7], the system named is primary peritoneal mouse macrophages (PMM). In words: Cytotoxicity to PMM (microscopic scoring within susceptibility assay). To be noted: Swiss, mouse.
The next series deals with MRC-5SV2 cells. The series can be described thus: Cytotoxicity assay on MRC-5SV2 cells (resazurin). The settings on record: human, 3 days.
For another series, the system named is THP-1 cells. The settings on record: 120 hours, Alamar Blue.
Series [8] deals with Leishmania infantum (MHOM/MA/67/ITMAP-263) intracellular amastigotes in THP-1. The settings on record: THP-1 host cells, 120 hours.
Series [9] is described as follows: in vitro. To be noted: human; for CC50 at 120 h: THP-1 cells differentiated with PMA; for IC50 at 120 h: PMA-differentiated THP-1 cells.
Series [10] is described as follows: in vitro. The settings on record: human, HepG2 cells.
In series [11] the test system is L. donovani MHOM/SD/62/1SCL2D intracellular amastigotes. In words: microbe, parasite or virus in culture. To be noted: Leishmania donovani, read-out: L. donovani MHOM/SD/62/1SCL2D intracellular amastigotes IC50.
The subject of a further series is Vero. In words: cells. To be noted: Chlorocebus sabaeus, read-out: Vero IC50.
Series [12] in a line: in vitro. To be noted: human, microsomes, intrinsic in vitro clearance, liver microsomes.
For series [13] the following is noted: metabolite ID, peak area of substrate or metabolite.
For series [14] the following is noted: metabolite ID, peak area of substrate or metabolite. This is another data set of the same source.
Series [15] is described as follows: physchem. To be noted: HPLC, Ascentis Express RP Amide column, pH 7.4, elog D, HPLC measured log D, pH 7.4.
The test system of series [16] is Leishmania infantum MHOM/MA(BE)/67/ITMAP263 intracellular amastigotes. In words: microbe, parasite or virus in culture. To be noted: Macrophage, in Mus musculus, read-out: L. inf. pIC50, intracellular amastigotes in PMM (converted), geometric mean of a minimum of two experiments ± standard error.
Series [17] deals with primary peritoneal mouse macrophages (PMM). The series can be described thus: cells. The settings on record: Macrophage, read-out: PMM pIC50 (converted).
The nature of series [18]: physchem. The settings on record: aqueous medium.
Series [19] is described as follows: in vitro. To be noted: plasma, Plasma protein binding (PPB).
For series [20] the following is noted: 6 h incubation in mouse plasma.
The nature of series [21]: in vitro. To be noted: mouse, microsomes, intrinsic in vitro clearance, liver microsomes; for microsomal CLint at 0.5 h, 0.5 µM: pH 7.4, Microsome Clint,u Mouse, Table 2.
For series [22], the system named is Leishmania infantum (MHOM/MA/67/ITMAP-263) intracellular amastigotes in THP-1. The series can be described thus: microbe, parasite or virus in culture. To be noted: THP-1, 120 h, read-out: Intracellular activity pIC50 L. inf. in THP-1 (converted).
[23] abbreviates: pH 7.4, Microsome Clint,u Human, Table 2.

In the series with T. b. brucei (Squib-427), `Cc1ccc(C(=O)Nc2ccc(S(=O)(=O)O)c3cc(S(=O)(=O)O)cc(S(=O)(=O)O)c23)cc1NC(=O)c1cccc(NC(=O)Nc2cccc(C(=O)Nc3cc(C(=O)Nc4ccc(S(=O)(=O)O)c5cc(S(=O)(=O)O)cc(S(=O)(=O)O)c45)ccc3C)c2)c1` [Suramin] returned an IC50 of approximately 0.05 µM.

For the compound `CC[C@H](Cc1ccccc1)[S+]([O-])c1ccccc1OC` (stereo partly shown) [DNDI0003362002], the “MLM CLint” value in series [1] (mouse liver microsomes) was 3623 µL/min/mg. The “SI (vs PMM)” value in series [2] (PMM IC50 / L. infantum IC50) is 2. In series [3], this compound showed an eLogD of 3.7. In addition, the “HLM CLint” value in series [4] was 390 µL/min/mg. The IC50 is 30.8 µM in series [5], 35.3 µM in series [6] (read-out: L. infantum MHOM/MA(BE)/67/ITMAP263 intracellular amastigotes IC50) and more than 64 µM in [7]. For the same compound, in [6] (from L. infantum intracellular amastigote IC50), the “L. Inf. pIC50” value is recorded as 4.45. The 50% cytotoxic concentration (CC50) in the series on MRC-5SV2 cells is more than 64 µM.

`COc1ccc(OC)c(S(=O)(=O)N(Cc2ccc(F)cc2)Cc2oc(C)nc2C)c1` [SI51]: the “PMM pIC50” value in series [2] is listed as less than 4.19. Besides, in the series on THP-1 cells, the “pIC50 Cytotoxicity THP-1” value was less than 4.19. Also, the “L. inf. pIC50” value in series [6] is on record as 5.63±0.04. The “Intracellular activity pIC50 L. inf. in THP-1” value in [8] is given as 4.51±0.03.

`COc1ccc(CN(c2ccc3c(c2)OCO3)S(=O)(=O)c2ccc3nncn3c2)cc1` [DNDI0003321888] returned a CC50 at 120 h in “in vitro [9]” of more than 50 µM. The compound also had a CC50 in “in vitro [10]” of more than 50 µM. Also, the IC50 (in series [11]; in the series on Vero) was more than 50 µM each time.

In turn, `COc1ccc(OC)c(S(=O)(=O)N(C)Cc2ccc(F)cc2)c1` [Compound 37] came in with a microsomal CLint at 0.5 μM in the series “in vitro [12]” (setting [23]) of 414 µL/min/mg. The “Area% Human” value in [13] is reported as 22.5%. In addition, the “Area% Mouse” value in series [14] turned out to be 76.1%. The compound further gave a chromatographic logD in the series “physchem [15]” of 3.7. For the same compound, the IC50 in [16] was 11.7 µM; in [17], more than 64.6 µM.

`COc1ccc(S(C)(=O)=O)cc1S(=O)(=O)N(Cc1ccccc1)CC(C)(C)C` [SI52]: the “PMM pIC50” value in series [2] is listed as less than 4.19. In addition, in the series with THP-1 cells, the “pIC50 Cytotoxicity THP-1” value is listed as less than 4.19. Besides, the “L. inf. pIC50” value in series [6] is 5.56±0.28. The “Intracellular activity pIC50 L. inf. in THP-1” value in series [8] is reported as 4.32±0.01.

Regarding `COc1ccc(C(=O)N2CCOCC2)cc1S(=O)(=O)N(Cc1ccc(F)cc1)Cc1ccc(C(F)(F)F)nc1` [Compound 46], the microsomal CLint at 0.5 h, 0.5 µM in the series “in vitro [12]” (setting [23]) stood at 265 µL/min/mg; in “in vitro [21]”, 534 µL/min/mg. Also, the solubility (kinetic) turned out to be 3.8 µg/mL (≈ 6.7 µM) in the series “physchem [18]” (pH 2.0, pH 2) and 3.2 µg/mL (≈ 5.64 µM) in “physchem [18]” (pH 7.4, pH 7.4). This compound had a fraction unbound in the series “in vitro [19]” of 0.041. Moreover, the “improvement in the in vitro mouse clearance” value in series [1] was 4 fold. Also, the “Mouse plasma stability (6 h)” value in series [20] was 22 % remaining. The chromatographic logD in “physchem [15]” was 3.7. For the same compound, the IC50 was 1.74 µM in series [16] and more than 64.6 µM in series [17].

`COc1ccc(C2c3cccn3CCN2S(=O)(=O)c2ccc3ccccc3c2)cc1` (stereo not shown) [DNDI0003355838] had a CC50 at 120 h in “in vitro [9]” of more than 50 µM. Further, in the series “in vitro [10]”, the CC50 is more than 50 µM. The IC50 (in series [11]; in the series with Vero) was more than 50 µM in each case.

Consider `COc1ccc(C(=O)N2CCOCC2)cc1S(=O)(=O)N(Cc1ccccc1)Cc1cnc(C(F)(F)F)nc1` [Compound 47], for which the IC50 in series [22] was more than 64.6 µM; in series [16], 4.47 µM; in series [17], more than 64.6 µM. The microsomal CLint at 0.5 h, 0.5 µM was 73 µL/min/mg in the series “in vitro [12]” (setting [23]) and 152 µL/min/mg in “in vitro [21]”. In addition, the solubility (kinetic) in “physchem [18]” (pH 2.0, pH 2) worked out at 11.3 µg/mL (≈ 20.5 µM); in “physchem [18]” (pH 7.4, pH 7.4), 6.2 µg/mL (≈ 11.3 µM). In the series “in vitro [19]”, this compound showed a fraction unbound of 0.117. The “improvement in the in vitro mouse clearance” value in series [1] is reported as 4 fold. In “in vitro [9]”, this compound gave an IC50 at 120 h of more than 64.6 µM. For the same compound, in series [20], the “Mouse plasma stability (6 h)” value is listed as 42 % remaining. The chromatographic logD in the series “physchem [15]” is 3.5.

Compound `COc1ccc(S(=O)(=O)N2Cc3ccccc3CC2C(=O)NCc2ccccc2)cc1` (stereo not shown) [DNDI0003338988] yielded a CC50 at 120 h in “in vitro [9]” of more than 50 µM. In addition, the CC50 in the series “in vitro [10]” was more than 50 µM. Besides, the IC50 is more than 50 µM in series [11] and 29 µM in the series on Vero.

Regarding `COc1ccc(C(=O)NC2COC2)cc1S(=O)(=O)N(Cc1ccc(F)cc1)Cc1ccc(F)cc1` [Compound 23], the figures for the IC50 in series [22], in series [16] and in series [17] were 8.51 µM, 0.794 µM and more than 64.6 µM, respectively. For the same compound, the microsomal CLint at 0.5 μM in “in vitro [12]” (pH 7.4, Microsome Clint Human) turned out to be 178 µL/min/mg; in “in vitro [21]” (pH 7.4, Microsome Clint Mouse) it was 395 µL/min/mg. Besides, the “Area% Human” value in [13] came to 84.9%. The IC50 at 120 h in “in vitro [9]” was more than 64.6 µM. The “Area% Mouse” value in series [14] amounted to 89.1%. Also, the chromatographic logD in the series “physchem [15]” was 4.
